Paper PMC8949771, “Gold(I)-Mediated Rapid Cyclization of Propargylated Peptides via Imine Formation” (Journal of the American Chemical Society, 2022)

Experiment: Au(I)-mediated imine macrocyclisation: N-terminal amine adds (Markovnikov) to N-propargyl backbone amide alkyne; JohnPhosAu(MeCN)SbF6 2 equiv, Et4NBr 16 equiv; in situ NaBH4 10 equiv reduction 15 min for quantification
Details: DMF, 8.0 mM, 37.0 °C

Compound CC(C)C[C@@H]1NC(=O)CNC(=O)[C@H](Cc2ccccc2)NC(C)CN(CC(N)=O)C(=O)CNC(=O)[C@H](C)NC(=O)[C@H](CCCNC(=N)N)NC(=O)[C@H](Cc2ccc(O)cc2)NC1=O (stereo partly drawn) [H-Phe-Gly-Leu-Tyr-Arg-Ala-Gly-(N-propargyl)Gly-NH2] has a ring closure, conversion by HPLC (from C#CCN(CC(N)=O)C(=O)CNC(=O)[C@H](C)NC(=O)[C@H](CCCNC(=N)N)NC(=O)[C@H](Cc1ccc(O)cc1)NC(=O)[C@H](CC(C)C)NC(=O)CNC(=O)[C@@H](N)Cc1ccccc1, 24-membered ring, 0.5 h) of 85%.

CC(C)C[C@@H]1NC(=O)CNC(=O)[C@H](Cc2ccccc2)NC(C)CN(CC(N)=O)C(=O)CNC(=O)[C@H](C)NC(=O)[C@H](CCC(N)=O)NC(=O)[C@H](Cc2ccc(O)cc2)NC1=O (stereo partly drawn) [H-Phe-Gly-Leu-Tyr-Gln-Ala-Gly-(N-propargyl)Gly-NH2] gave a ring closure, conversion by HPLC (from C#CCN(CC(N)=O)C(=O)CNC(=O)[C@H](C)NC(=O)[C@H](CCC(N)=O)NC(=O)[C@H](Cc1ccc(O)cc1)NC(=O)[C@H](CC(C)C)NC(=O)CNC(=O)[C@@H](N)Cc1ccccc1, 24-membered ring, 1.0 h) of 64%.

In the case of CC(C)C[C@@H]1NC(=O)CNC(C)CN(CC(N)=O)C(=O)CNC(=O)[C@H](C)NC(=O)[C@H](CCCNC(=N)N)NC(=O)[C@H](Cc2ccc(O)cc2)NC1=O (stereo partly drawn) [H-Gly-Leu-Tyr-Arg-Ala-Gly-(N-propargyl)Gly-NH2], the ring closure, conversion by HPLC (from C#CCN(CC(N)=O)C(=O)CNC(=O)[C@H](C)NC(=O)[C@H](CCCNC(=N)N)NC(=O)[C@H](Cc1ccc(O)cc1)NC(=O)[C@H](CC(C)C)NC(=O)CN, 21-membered ring, 0.5 h) is reported as 78%.

Compound CC(C)C[C@@H]1NC(=O)CNC(=O)[C@H](CC(N)=O)NC(C)CN(CC(N)=O)C(=O)CNC(=O)[C@H](C)NC(=O)[C@H](CCCNC(=N)N)NC(=O)[C@H](Cc2ccc(O)cc2)NC1=O (stereo partly drawn) [H-Asn-Gly-Leu-Tyr-Arg-Ala-Gly-(N-propargyl)Gly-NH2] has a ring closure, conversion by HPLC (from C#CCN(CC(N)=O)C(=O)CNC(=O)[C@H](C)NC(=O)[C@H](CCCNC(=N)N)NC(=O)[C@H](Cc1ccc(O)cc1)NC(=O)[C@H](CC(C)C)NC(=O)CNC(=O)[C@@H](N)CC(N)=O, 24-membered ring, 1.0 h) of 76%.

CC(C)C[C@@H]1NC(=O)CNC(=O)[C@H](Cc2ccccc2)NC(C)CN(CC(N)=O)C(=O)CNC(=O)[C@H](C)NC(=O)[C@H](CO)NC(=O)[C@H](Cc2ccc(O)cc2)NC1=O (stereo partly drawn) [H-Phe-Gly-Leu-Tyr-Ser-Ala-Gly-(N-propargyl)Gly-NH2] showed a ring closure, conversion by HPLC (from C#CCN(CC(N)=O)C(=O)CNC(=O)[C@H](C)NC(=O)[C@H](CO)NC(=O)[C@H](Cc1ccc(O)cc1)NC(=O)[C@H](CC(C)C)NC(=O)CNC(=O)[C@@H](N)Cc1ccccc1, 24-membered ring, 1.0 h) of 74%.

CC(C)C[C@@H]1NC(=O)CNC(C)CN(CC(N)=O)C(=O)CNC(=O)[C@H](C)NC(=O)[C@H](Cc2ccc(O)cc2)NC1=O (stereo partly drawn) [H-Gly-Leu-Tyr-Ala-Gly-(N-propargyl)Gly-NH2] showed a ring closure, conversion by HPLC (from C#CCN(CC(N)=O)C(=O)CNC(=O)[C@H](C)NC(=O)[C@H](Cc1ccc(O)cc1)NC(=O)[C@H](CC(C)C)NC(=O)CN, 18-membered ring, 0.5 h) of 79%.

CC(C)C[C@@H]1NC(=O)CNC(=O)[C@H](Cc2ccccc2)NC(C)CN([C@@H](Cc2ccccc2)C(N)=O)C(=O)CNC(=O)[C@H](C)NC(=O)[C@H](CCCNC(=N)N)NC(=O)[C@H](Cc2ccc(O)cc2)NC1=O (stereo partly drawn) [H-Phe-Gly-Leu-Tyr-Arg-Ala-Gly-(N-propargyl)Phe-NH2] showed a ring closure, conversion by HPLC (from C#CCN(C(=O)CNC(=O)[C@H](C)NC(=O)[C@H](CCCNC(=N)N)NC(=O)[C@H](Cc1ccc(O)cc1)NC(=O)[C@H](CC(C)C)NC(=O)CNC(=O)[C@@H](N)Cc1ccccc1)[C@@H](Cc1ccccc1)C(N)=O, 24-membered ring, 1.0 h) of 88%.

For CC(C)C[C@@H]1NC(=O)CNC(=O)[C@H](CCC(=O)O)NC(C)CN(CC(N)=O)C(=O)CNC(=O)[C@H](C)NC(=O)[C@H](CCCNC(=N)N)NC(=O)[C@H](Cc2ccc(O)cc2)NC1=O (stereo partly drawn) [H-Glu-Gly-Leu-Tyr-Arg-Ala-Gly-(N-propargyl)Gly-NH2], the ring closure, conversion by HPLC (from C#CCN(CC(N)=O)C(=O)CNC(=O)[C@H](C)NC(=O)[C@H](CCCNC(=N)N)NC(=O)[C@H](Cc1ccc(O)cc1)NC(=O)[C@H](CC(C)C)NC(=O)CNC(=O)[C@@H](N)CCC(=O)O, 24-membered ring, 1.0 h) was 89%.

CC(C)C[C@@H]1NC(=O)CNC(=O)[C@H](CO)NC(C)CN(CC(N)=O)C(=O)CNC(=O)[C@H](C)NC(=O)[C@H](CCCNC(=N)N)NC(=O)[C@H](Cc2ccc(O)cc2)NC1=O (stereo partly drawn) [H-Ser-Gly-Leu-Tyr-Arg-Ala-Gly-(N-propargyl)Gly-NH2] gave a ring closure, conversion by HPLC (from C#CCN(CC(N)=O)C(=O)CNC(=O)[C@H](C)NC(=O)[C@H](CCCNC(=N)N)NC(=O)[C@H](Cc1ccc(O)cc1)NC(=O)[C@H](CC(C)C)NC(=O)CNC(=O)[C@@H](N)CO, 24-membered ring, 1.0 h) of 75%.

Compound CC(C)C[C@@H]1NC(=O)CNC(=O)[C@H](Cc2ccccc2)NC(C)CN(CC(N)=O)C(=O)[C@H](CC(=O)O)NC(=O)[C@H](C)NC(=O)[C@H](CCCNC(=N)N)NC(=O)[C@H](Cc2ccc(O)cc2)NC1=O (stereo partly drawn) [H-Phe-Gly-Leu-Tyr-Arg-Ala-Asp-(N-propargyl)Gly-NH2] has a ring closure, conversion by HPLC (from C#CCN(CC(N)=O)C(=O)[C@H](CC(=O)O)NC(=O)[C@H](C)NC(=O)[C@H](CCCNC(=N)N)NC(=O)[C@H](Cc1ccc(O)cc1)NC(=O)[C@H](CC(C)C)NC(=O)CNC(=O)[C@@H](N)Cc1ccccc1, 24-membered ring, 1.0 h) of 80%.

Work on CC(C)C[C@@H]1NC(=O)CNC(=O)[C@H](CC(=O)O)NC(C)CN(CC(N)=O)C(=O)CNC(=O)[C@H](C)NC(=O)[C@H](CCCNC(=N)N)NC(=O)[C@H](Cc2ccc(O)cc2)NC1=O (stereo partly drawn) [H-Asp-Gly-Leu-Tyr-Arg-Ala-Gly-(N-propargyl)Gly-NH2] yielded a ring closure, conversion by HPLC (from C#CCN(CC(N)=O)C(=O)CNC(=O)[C@H](C)NC(=O)[C@H](CCCNC(=N)N)NC(=O)[C@H](Cc1ccc(O)cc1)NC(=O)[C@H](CC(C)C)NC(=O)CNC(=O)[C@@H](N)CC(=O)O, 24-membered ring, 1.0 h) of 76%.

Compound CC(C)C[C@@H]1NC(=O)CNC(=O)[C@H](Cc2ccccc2)NC(C)CN(CC(N)=O)C(=O)[C@H](CO)NC(=O)[C@H](C)NC(=O)[C@H](CCCNC(=N)N)NC(=O)[C@H](Cc2ccc(O)cc2)NC1=O (stereo partly drawn) [H-Phe-Gly-Leu-Tyr-Arg-Ala-Ser-(N-propargyl)Gly-NH2] has a ring closure, conversion by HPLC (from C#CCN(CC(N)=O)C(=O)[C@H](CO)NC(=O)[C@H](C)NC(=O)[C@H](CCCNC(=N)N)NC(=O)[C@H](Cc1ccc(O)cc1)NC(=O)[C@H](CC(C)C)NC(=O)CNC(=O)[C@@H](N)Cc1ccccc1, 24-membered ring, 1.0 h) of 64%.

CC(C)C[C@@H]1NC(=O)CNC(=O)[C@H](CCCNC(=N)N)NC(C)CN(CC(N)=O)C(=O)CNC(=O)[C@H](C)NC(=O)[C@H](CCCNC(=N)N)NC(=O)[C@H](Cc2ccc(O)cc2)NC1=O (stereo partly drawn) [H-Arg-Gly-Leu-Tyr-Arg-Ala-Gly-(N-propargyl)Gly-NH2] gave a ring closure, conversion by HPLC (from C#CCN(CC(N)=O)C(=O)CNC(=O)[C@H](C)NC(=O)[C@H](CCCNC(=N)N)NC(=O)[C@H](Cc1ccc(O)cc1)NC(=O)[C@H](CC(C)C)NC(=O)CNC(=O)[C@@H](N)CCCNC(=N)N, 24-membered ring, 1.0 h) of 83%.

CC(C)C[C@@H]1NC(=O)CNC(=O)[C@H](CS)NC(C)CN(CC(N)=O)C(=O)CNC(=O)[C@H](C)NC(=O)[C@H](CCCNC(=N)N)NC(=O)[C@H](Cc2ccc(O)cc2)NC1=O (stereo partly drawn) [H-Cys-Gly-Leu-Tyr-Arg-Ala-Gly-(N-propargyl)Gly-NH2] showed a ring closure, conversion by HPLC (from C#CCN(CC(N)=O)C(=O)CNC(=O)[C@H](C)NC(=O)[C@H](CCCNC(=N)N)NC(=O)[C@H](Cc1ccc(O)cc1)NC(=O)[C@H](CC(C)C)NC(=O)CNC(=O)[C@@H](N)CS, 24-membered ring, 1.0 h) of 76%.

For CC(C)C[C@@H]1NC(=O)CNC(=O)[C@H](Cc2ccccc2)NC(C)CN([C@@H](CC(=O)O)C(N)=O)C(=O)CNC(=O)[C@H](C)NC(=O)[C@H](CCCNC(=N)N)NC(=O)[C@H](Cc2ccc(O)cc2)NC1=O (stereo partly drawn) [H-Phe-Gly-Leu-Tyr-Arg-Ala-Gly-(N-propargyl)Asp-NH2], the ring closure, conversion by HPLC (from C#CCN(C(=O)CNC(=O)[C@H](C)NC(=O)[C@H](CCCNC(=N)N)NC(=O)[C@H](Cc1ccc(O)cc1)NC(=O)[C@H](CC(C)C)NC(=O)CNC(=O)[C@@H](N)Cc1ccccc1)[C@@H](CC(=O)O)C(N)=O, 24-membered ring, 1.0 h) was 56%.

CC(C)C[C@@H]1NC(=O)CNC(=O)[C@H](Cc2ccccc2)NC(C)CN(CC(N)=O)C(=O)CNC(=O)[C@H](C)NC(=O)[C@H](CC(=O)O)NC(=O)[C@H](Cc2ccc(O)cc2)NC1=O (stereo partly drawn) [H-Phe-Gly-Leu-Tyr-Asp-Ala-Gly-(N-propargyl)Gly-NH2] gave a ring closure, conversion by HPLC (from C#CCN(CC(N)=O)C(=O)CNC(=O)[C@H](C)NC(=O)[C@H](CC(=O)O)NC(=O)[C@H](Cc1ccc(O)cc1)NC(=O)[C@H](CC(C)C)NC(=O)CNC(=O)[C@@H](N)Cc1ccccc1, 24-membered ring, 1.0 h) of 82%.

Compound CC(C)C[C@@H]1NC(=O)CNC(C)CN(CC(N)=O)C(=O)CNC(=O)CNC(=O)CNC(=O)[C@H](C)NC(=O)[C@H](CCCNC(=N)N)NC(=O)[C@H](Cc2ccc(O)cc2)NC(=O)[C@H](CC(C)C)NC(=O)[C@H](Cc2ccccc2)NC(=O)[C@H](C)NC(=O)[C@H](CCCNC(=N)N)NC(=O)[C@H](Cc2ccc(O)cc2)NC1=O (stereo partly drawn) has a ring closure, conversion by HPLC (from C#CCN(CC(N)=O)C(=O)CNC(=O)CNC(=O)CNC(=O)[C@H](C)NC(=O)[C@H](CCCNC(=N)N)NC(=O)[C@H](Cc1ccc(O)cc1)NC(=O)[C@H](CC(C)C)NC(=O)[C@H](Cc1ccccc1)NC(=O)[C@H](C)NC(=O)[C@H](CCCNC(=N)N)NC(=O)[C@H](Cc1ccc(O)cc1)NC(=O)[C@H](CC(C)C)NC(=O)CN, 42-membered ring, 1.0 h) of 90%.

CC(C)C[C@@H]1NC(=O)CNC(C)CN(CC(N)=O)C(=O)CNC(=O)[C@H](C)NC(=O)[C@H](CS)NC(=O)[C@H](Cc2ccc(O)cc2)NC1=O (stereo partly drawn) [H-Gly-Leu-Tyr-Cys-Ala-Gly-(N-propargyl)Gly-NH2] showed a ring closure, conversion by HPLC (from C#CCN(CC(N)=O)C(=O)CNC(=O)[C@H](C)NC(=O)[C@H](CS)NC(=O)[C@H](Cc1ccc(O)cc1)NC(=O)[C@H](CC(C)C)NC(=O)CN, 21-membered ring, 0.5 h) of 75%.
